System: lipoidalamine-induced arthritis
Experiment: Lipoidalamine-induced arthritis model
Assay type: in vivo
Conditions: rat, positive control, 0.1 mg/kg orally
From the text: The lipoidalamine-induced arthritis test is a model of systemic inflammation and arthritis induced by the adjuvant substance N, N-dioctadecyl-N′,N′-bis(2-hydroxyethyl)propanediamine (LA) suspended in mineral oil. The disease that results is very similar to that occurring in Freund's complete adjuvant (FCA) treated rats according to Chang [Chang, Y., Pearson, C. M., and Abe, C., "Adjuvant polyarthritis IV. Induction by a synthetic adjuvant: immunologic, histopathologic, and other studies," Arth. Rheum.23: 62-71, (1980)]. Inflammation occurs in many tissues but is most striking in the spleen and joints. Compounds are tested for their ability to modulate splenic and joint inflammation in established disease (treatment starts on day 9).
The animals (Lewis/Sprague Dawley, males, 200-220 grams) are divided into groups of 5 and housed in hanging cages with food and water ad libitum. On day 0 they are injected with 7.5 mg of LA subcutaneously at the base of the tail. On day 9 the animals are weighed and compound administration is started. The compounds are suspended, using a tissue homogenizer, in a 1% CMC solution. The screening dose is 50 mg/kg orally. Compounds are administered once daily for 5 days (days 9-13) with no dosing on day 14. On day 15 the animals are weighed again and hind paw volume measured using a water manometer. The animals are then anesthetized and bled via cardiac puncture. After the animals are euthanized, the spleen is removed and weighed and the hind feet are removed just above the ankle joint and weighed. The individual blood samples are analyzed for fibrinogen. Means and standard errors for all of these parameters are then calculated, and percent differences from the diseased (LA) control are figured. Statistical significance is determined utilizing the Dunnet T calculation on the raw data. The positive control for the LA arthritis test is dexamethasone. Dexamethasone at a dose of 0.1 mg/kg orally will inhibit paw swelling by 80-90% and spleen weight by 90-100%. […]

## C[C@@H]1C[C@H]2[C@@H]3CCC4=CC(=O)C=C[C@]4(C)[C@@]3(F)[C@@H](O)C[C@]2(C)[C@@]1(O)C(=O)CO [Dexamethasone, dexamethasone]
  inhibit paw swelling: 80-90%
  inhibit spleen weight: 90-100%
More variable
  fibrinogen inhibited: 50-70%
